{"source": "patent US20070105944A1", "about": "“Taxane metabolites” (priority 2002, published 2007)", "key": {"[1]": {"experiment": "[14C]Compound I incubation with dog liver microsomes (DLM), metabolite profile", "format": "in vitro ADME", "conditions": "1 hr incubation, 37° C., 20 μM, NADPH", "experimental": "(§1) Each mL of the incubation mixture, in 100 mM of potassium phosphate buffer (pH 7.4), contained: 20 nmol of test article, 1 mg of microsomal protens, 3 μmol of NADPH and 10 μmol of magnesium chloride. The final concentrations were: test article, 20 μM; microsomal proteins, 1 mg/mL; NADPH, 3 mM; magnesium chloride, 10 mM; acetonitrile, 1% (v/v). 7-EC (100 μM) was used as the positive control for enzyme activity in the microsomes of all species. Two negative controls, one without NADPH and the other using heat-treated microsomes (5 min in boiling water), were carried out to determine the stability of the test article. […]\n(§2) Incubations were carried out aerobically at 37° C. with constant shaking. […] At the end of incubation, duplicate aliquots (10 μL) of the incubation mixture of the negative controls and the test article incubations were taken for liquid scintillation counting of radioactivity. […]\n(§3) The radiochemical purity of [^14C]Compound I and the metabolite profiles of the compound in the methanol extract of liver microsomal incubations were determined by HPLC radiochromatograpby using the following system:\n(§4) Fractions of the HPLC effluent were collected (0.25 min/fraction) into a 96-well deep luma plates and the collected fractions were dried using Savant Automatic SpeedVac system. Radioactivity was then determined with a Packard Top Count-NXT counter. […]"}, "[2]": {"experiment": "Biotransformation of [14C]Compound I in bile duct cannulated rats after a single oral dose", "format": "in vivo, rat", "conditions": "single 25-mg/kg oral dose", "source_text": "A single 25-mg/kg oral dose of [^14C] Compound I, as a solution in cremophore\nEL/ethanol/water (10:10:80, v/v/v), was separately administered to two male bile duct cannulated (BDC) rats. Within 24 hr after dosing, an average of 25.8% of the administered dose was excreted in bile, The corresponding value in urine was 3.9%. […] Thus, the oral absorption of [^14C] Compound I in rats was estimated to be at least 30%. Following the oral dose, the concentration of total radioactivity in plasma was measurable up to 24 hr and averaged 349 ng-equiv./mL at that time. The parent drug was a prominent radioactive component in plasma. At 24 hr after dosing, the concentration of Compound I in plasma was estimated to be 61 ng/mL. More than 20 hydrolytic and oxidative metabolites of [^14C] Compound I were detected in plasma.\nBile duct and jugular vein cannulated (BDC/JVC) male Sprague-Dawley rats (Hla®: [SD] CVF®, 6-10 weeks old and weighing 300±50 g at dosing), were purchased from Hilltop Laboratories (Scottdale, Pa.). Upon receipt, each rat was marked on the tail and given an ear tag with a unique identification number.\nThe dosing solution was prepared as follows: 7.96 mg of non-radiolabeled Compound I, 10.16 mg of [^13C] Compound I and 2.99 mg of [^14C] Compound I (77.7 μCi of radioactivity) were weighed into a vial. The compounds were then dissolved in 1.6 mL of a cremophore EL/ethanol solution (1:1, v/v) and diluted with 6.4 mL of sterile water. The total weight of the dosing solution was 7.53 g. The concentration of [^14C] Compound I in the dosing solution was […] (10.32 μCi/g) of solution. The nominal specific activity was 3.68 μCi/mg (8170 dpm/μg).\nTwo rats, housed individually in Nalgene metabolic cages, were each given a single 25-mg/kg nominal dose of [^14C] Compound I orally by gavage. The actual amount of dosing solution administered to each animal was determined by weighing the loaded dosing syringe before dose administration and the emptied syringe after dose administration. Bile was collected from each animal between −1-0 (pre-dose), 0-6, 6-12, and 12-24 hr after dosing. Urine was collected between −24-0 (predose), 0-12, and 12-24 hr after dosing. Both the bile and urine samples were collected in tubes set on dry ice. At 0.5, 6, and 12 hr after dosing, blood samples (−1.2 mL) were collected from the jugular vein cannula into a heparinized syringe. At 24 hr after dosing, animals were sacrificed by CO2 asphyxiation. Terminal blood was collected by cardiac puncture into a heparinized vacutainer. Predose blood sample was collectd from a separate control animal. Blood was centrifuged at 2,500 rpm and 4° C. for 10 min to separate the plasma. Bile, urine, and plasma samples were weighed and stored at −20° C. prior to analysis.\nConcentrations of radioactivity in bile, urine, and plasma samples were determined by counting duplicate aliquots of each sample in 5 mL of Ready Value™ cocktail (Beckman Instrunents, Inc.) with a Beckman LS 3801, LS 5000TD, or LS6000TA Liquid Scintillation Counter for 10 min or until the 2-sigma error was less than or equal to 2%, whichever came first. Quench correction was performed using an external standard method. Most of the HPLC fractions used to prepare reconstructed HPLC chromatograms were counted for 5 minutes except for plasma samples, which were counted for 10 minutes.\nA portion (−20% of each sample) of the 0-6, 6-12, and 12-24 hr bile samples from two rats were pooled by interval to prepare three pooled samples. A portion (−20% of each sample) of the 0-6, 6-12, and 12-24 hr bile samples from two rats were pooled together to prepare a 0-24 hr sample. Duplicate 10-μL aliquots of each pooled sample were taken for radioactivity counting.\nA portion (−20% of each sample) of the 0-12 and 12-24 hr urine samples from two rats were pooled by interval to prepare two pooled samples. […]"}, "[3]": {"experiment": "[14C]Compound I incubation with monkey liver microsomes (MKLM), metabolite profile", "format": "in vitro ADME", "conditions": "1 hr incubation, 37° C., 20 μM, NADPH", "experimental": "as §1, §2, §3, §4"}, "[4]": {"experiment": "[14C]Compound I incubation with rat liver microsomes (RLM), metabolite profile", "format": "in vitro ADME", "conditions": "1 hr incubation, 37° C., 20 μM, NADPH", "experimental": "as §1, §2, §3, §4"}, "[5]": {"experiment": "Rank order of metabolic stability in liver microsomes of the five species", "format": "in vitro ADME", "conditions": "1 hr incubation", "experimental": "Each mL of the incubation mixture, in 100 mM of potassium phosphate buffer (pH 7.4), contained: 20 nmol of test article, 1 mg of microsomal protens, 3 μmol of NADPH and 10 μmol of magnesium chloride. The final concentrations were: test article, 20 μM; microsomal proteins, 1 mg/mL; NADPH, 3 mM; magnesium chloride, 10 mM; acetonitrile, 1% (v/v). 7-EC (100 μM) was used as the positive control for enzyme activity in the microsomes of all species. Two negative controls, one without NADPH and the other using heat-treated microsomes (5 min in boiling water), were carried out to determine the stability of the test article. The total volume of incubation mixture was 5 mL each for the test article incubations and 1 mL each for the positive and negative controls.\nas §2, with “shaking. Incubation mixtures were prepared at 0-4° C. (on ice).” for “shaking.”\n[^14C]Compound I was separately incubated with mouse, rat, dog, monkey and human liver microsoomes fortified with NADPH for 1 hr at 37° C. The incubation mixtures were extracted with methanol and the extacts were analyzed by HPLC radiochromatograpby and LC/RAM/(+)ESI-MS and MS/MS."}, "[6]": {"experiment": "[14C]Compound I incubation with human liver microsomes (HLM), metabolite profile", "format": "in vitro ADME", "conditions": "1 hr incubation, 37° C., 20 μM, NADPH", "experimental": "as §1, §2, §3, §4"}, "[7]": {"experiment": "[14C]Compound I incubation with mouse liver microsomes (MLM), metabolite profile", "format": "in vitro ADME", "conditions": "1 hr incubation, 37° C., 20 μM, NADPH", "experimental": "as §1, §2, §3, §4"}, "[8]": {"tested_on": "tumors", "conditions": "Proc Am Assoc Cancer Res 1999 40 Abs 1905; cited from earlier work"}, "[9]": {"conditions": "prior art; cited from earlier work"}, "[10]": {"conditions": "oral; quote from WO98/53811; cited from earlier work"}, "[11]": {"tested_on": "sc M109", "format": "in vivo", "conditions": "oral doses as high as 160 mg/kg/inj, murine tumor models (sc M109)", "source_text": "[…]; see Eiseman et al., Second NCI Workshop on Taxol and Taxus (September 1992); Suffness et.al. in TAXOL Science and Applications (CRC Press 1995). […]. Another report by J. Terwogt et. al. from The Lancet, Jul. […] […]."}, "[12]": {"tested_on": "human tumor xenografts", "experiment": "Oral paclitaxel against human tumor xenografts in athymic mice or rats", "conditions": "human tumor xenografts implanted in athymic mice or athymic rats"}, "[13]": {"conditions": "up to 160 mg/kg/day, Suffness et al.; cited from earlier work"}, "[14]": {"conditions": "BDC rats, within 24 hr, average of two rats, total radioactivity"}}, "note": "Where “and” joins values, the source holds several entries; their conditions need not be identical. Identical values can stand only once."}
{"smiles": "COC(=O)O[C@@]12CO[C@@H]1C[C@H](O)[C@@]1(C)C(=O)[C@H](OC(C)=O)C3=C(C)[C@@H](OC(=O)[C@H](O)[C@@H](NC(=O)OC(C)(C)C)C(C)(C)C)C[C@@](O)([C@@H](OC(=O)c4ccccc4)C12)C3(C)C", "note": "(some centres unmarked) [Compound I, 3′-tert-butyl-3′-N-tert-butyloxycarbonyl-4-deacetyl-3′-dephenyl-3′-N-debenzoyl-4-O-methoxycarbonyl-paclitaxel]", "values": [{"measurement": "parent drug in the incubation mixture remained unchanged", "setting": "[1]", "value": "59.7% and 58.7%"}, {"measurement": "total recovery of the administered dose in bile and urine", "setting": "[2]; BDC rats, 24 hr, average", "value": 29.6, "unit": "%"}, {"measurement": "administered dose excreted in bile", "setting": "[2]; [14]", "value": 25.8, "unit": "%"}, {"measurement": "administered dose excreted in urine", "setting": "[2]; [14]", "value": 3.9, "unit": "%"}, {"measurement": "concentration at 24 h", "setting": "[2]; male, Sprague-Dawley, rat, rats, at 24 hr after dosing, pooled plasma, read-out: concentration of Compound I in plasma (estimated)", "value": 61, "unit": "ng/mL"}, {"measurement": "parent drug detected in bile, % of total radioactivity", "setting": "[2]; rats, 0-24 h pooled bile", "value": "< 1", "unit": "%"}, {"measurement": "concentration of total radioactivity in plasma", "setting": "[2]; rats, at 24 hr, average", "value": 349, "unit": "ng-equiv./mL"}, {"measurement": "oral absorption (estimated)", "setting": "[2]; rats, from bile and urine recovery", "value": "at least 30%"}, {"measurement": "parent drug detected in urine", "setting": "[2]; rats, pooled urine", "value": "≤ 1", "unit": "%"}, {"measurement": "parent drug in the incubation mixture remained unchanged", "setting": "[3]", "value": 2.9, "unit": "%"}, {"measurement": "parent drug in the incubation mixture remained unchanged", "setting": "[4]", "value": 72.5, "unit": "%"}, {"measurement": "rank order of metabolic stability in the liver microsomes of the five species", "setting": "[5]", "value": "rat>dog>mouse>human>monkey"}, {"measurement": "parent drug in the incubation mixture recovered unchanged", "setting": "[6]", "value": 21.4, "unit": "%"}, {"measurement": "parent drug in the incubation mixture remained unchanged", "setting": "[7]", "value": 31.5, "unit": "%"}]}
{"smiles": "CC(=O)O[C@H]1C(=O)[C@@]2(C)[C@H]([C@H](OC(=O)c3ccccc3)[C@]34OC(=O)O[C@H]3[C@H](OC(=O)[C@H](O)[C@H](CC(C)C)NC(=O)OC(C)(C)C)C(C)=C1C4(C)C)[C@]1(OC(C)=O)CO[C@@H]1C[C@@H]2O", "note": "[IDN-5109]", "values": [{"measurement": "activity against tumors in mice after oral administration", "setting": "[8]", "value": "oral activity"}]}
{"smiles": "O=C(O)CNC(=O)c1ccccc1", "note": "[Metabolite M3, hippuric acid]", "values": [{"measurement": "% of the dose in urine accounted for by metabolite(s)", "setting": "[2]; rats, 0-24 hr pooled urine", "value": "~2.3", "unit": "%"}, {"measurement": "% of total radioactivity in urine accounted for by metabolite(s)", "setting": "[2]; rats, 0-24 hr pooled urine", "value": "~56% and ~60%"}]}
{"smiles": "CC(=O)O[C@@]12CO[C@@H]1C[C@H](O)[C@@]1(C)C(=O)[C@H](O)C3=C(C)[C@@H](OC(=O)[C@H](O)[C@@H](NC(=O)OC(C)(C)C)c4ccccc4)C[C@@](O)([C@@H](OC(=O)c4ccccc4)[C@H]21)C3(C)C", "note": "[TAXOTERE®, docetaxel]", "values": [{"measurement": "oral activity in human or animal models", "setting": "[9]", "value": "no oral activity"}]}
{"smiles": "CC(=O)O[C@H]1C(=O)[C@@]2(C)[C@H]([C@H](OC(=O)c3ccccc3)[C@]3(O)C[C@H](OC(=O)[C@H](O)[C@@H](NC(=O)c4ccccc4)c4ccccc4)C(C)=C1C3(C)C)[C@]1(OC(C)=O)CO[C@@H]1C[C@@H]2O", "note": "[paclitaxel]", "values": [{"measurement": "oral activity in human or animal models", "setting": "[9]", "value": "no oral activity"}, {"measurement": "absorbed when administered orally", "setting": "[10]", "value": "less than 1%"}, {"measurement": "efficacy after oral dosing", "setting": "[11]", "value": "without signs of any efficacy"}, {"measurement": "attempts to demonstrate activity for orally administered drug", "setting": "[12]", "value": "unsuccessful"}, {"measurement": "antitumor activity on oral administration", "setting": "[13]", "value": "no evidence of antitumor activity"}]}
